# Source: patent US20250326814A1, “MODIFIED OXYNTOMODULIN AND METHODS OF USE THEREOF” (OPKO BIOLOGICS LTD., priority 2024, published 2025)
# pEC50: −log10 of the molar value. “Also recorded” adds a separate entry of the source. Non-standard residues stand in square brackets, D forms with d. Residues, ends and D or L forms follow the SMILES beside them. *: point of attachment. X1 = O=C(O)CCCCCCCCCCCCCCCCCCC(=O)N[C@@H](CCC(=O)NCCOCCOCC(=O)NCCOCCOCC(=O)N[C@@H](CCCCNC(=O)C*)C(=O)NCC(=O)O)C(=O)O; Aib = CC(C)(N)C(=O)O
# Experiments:
# [1] = target: T1, glucagon-like peptide-1 (GLP1) receptor (Homo sapiens, UniProt P43220); experiment: GLP-1 activity EC50 of OXM analogs and GLP-1 therapeutics (Example 4, Table 9); type: cell-based; details: GLP-1 activity; Table 9; read-out: EC50
# T1 construct: expressed in transfected cells; host or cells: CHO-K1
# From the text: The potencies of the modified OXM analogs newly disclosed in the present application, the OXM Analog alone, and the PEGylated OXM analog were examined and compared by measuring the EC50 of both receptors, glucagon-like peptide-1 (GLP1) and glucagon (GCGR).
# [2] = target: GLP1 (Homo sapiens, UniProt P43220); experiment: GLP-1 activity in vitro of PEGylated and acylated OXM peptide analogs (Table 12); type: cell-based
# Description: (§4) The potential benefits of novel acylated OXM products relative to the PEGylated OXM peptide were evaluated for GLP-1 and Glucagon activity in vitro, molecular weight, dosing, and efficacy in a DIO Mouse model.
# (§5) The potency of the acylated OXM peptides was compared with the native OXM peptide alone and Pegylated OXM peptide to evaluate the impact of acylation on GLP-1 and Glucagon activities.
# [3] = target: GCGR (Homo sapiens, UniProt P47871); experiment: Glucagon activity in vitro of PEGylated and acylated OXM peptide analogs (Table 12); type: cell-based
# Description: as §4, §5
# [4] = system: DIO mice; experiment: Body weight and food intake in DIO mice, 4 weeks daily treatment; type: in vivo
# Description: (§1) The animals were individually weighed and analyzed for lipid and cholesterol levels prior to treatment and following completion of the study. The levels of fasting glucose and insulin levels were analyzed, and oral glucose tolerance test was performed and compared between groups The levels of plasma triglycerides and cholesterol were evaluated at the end of study and compared to base levels prior to treatment. Levels of total cholesterol, triglycerides and glycogen were also examined at the end of study. Histology of liver was used to analyze for lipid droplets in the liver. All tests were conducted using routine methods known in the art.
# The mice used in the studies were the gubra diet-induced obese (DIO) mouse model. This mouse model is fed a high fat diet that results in rapid weight gain. The DIO mice were based on male C57BI/6J mice and ready for experiment after 18 weeks on a 60% high fat diet.
# To ensure accurate monitoring of weight changes over the course of the study, the animals were weighed daily with precision, prior to dosing at 7:00 AM. Body weight data was recorded in two formats: (1) Absolute measurements: The direct weight of the animal each day, and (2) Relative measurements: The weight expressed as a percentage relative to the body weight recorded on Day 1.
# (§2) Sixty C57BL/6JRj male mice were fed a high fat diet (60% HFD, D12492—Ssniff) for 20 weeks before treatment start. […] Body weight and food intake (24 h) were measured daily. In week 3, an OGTT study was performed. Baseline and preterminal fasting blood glucose and plasma insulin were assessed. Preterminal plasma TC and TG were assessed. Terminal endpoints included liver and heart weight, liver TC, TG, […] and lipid content (HE staining).
# [5] = system: DIO mice; experiment: Body composition (fat and lean tissue mass) in DIO mice; type: in vivo
# Description: The body composition of mice was assessed by an EchoMRI 3 in 1 Body composition analyzer (EchoMRI, US). Non-anaesthetized animals were placed in a plastic tube inside the MRI scanner for approximately 80 seconds. The body composition was reported as fat mass and fat free mass (lean mass).
# as §2
# [6] = system: DIO mice; experiment: Liver cholesterol, triglyceride and glycogen in DIO mice; type: in vivo
# Description: (§3) After termination, the liver was collected and weighed. Specific liver samples and biopsies were dissected and processed as specified in table “Termination samples” in the protocol and further described below.
# The Liver TG TC piece (25±5 mg) was dissected from the right medial lobe, with no edges, on the opposite side of the sponsor piece. The samples were weighed individually, collected in tubes and frozen in liquid nitrogen. The samples were stored at −70° C.
# Liver Triglycerides (TG) and Total cholesterol (TC): The liver content of triglyceride and total cholesterol was extracted from the liver samples into 5% NP-40, in a homogenization process followed by a heating step, where the samples were heated twice to 90° C. The samples were then centrifuged, and the supernatant was collected. The TG and TC levels were then determined by measurement on the cobas c 501 autoanalyzer with the relevant commercial kits from Roche Diagnostics.
# as §2
# [7] = system: DIO mice; experiment: Liver H&E staining for lipid droplets / liver lipid in DIO mice; type: in vivo
# Description: In summary, glass slides with paraffin embedded sections were deparaffinated in xylene and rehydrated in series of graded ethanol.
# Slides treated with histochemical and immunohistochemical stains were scanned using a 20× objective in a ScanScope AT slide scanner (Aperio).
# Hematoxylin & Eosin (H&E) staining: Sections of FFPE tissue were incubated in Mayer's Hematoxylin (Dako), washed in tap water, stained in Eosin Y solution (Sigma-Aldrich), dehydrated in graded ethanol and cover slipped.
# as §2
# [8] = system: DIO mice; experiment: Plasma cholesterol and triglyceride in DIO mice; type: in vivo
# Description: For termination blood samples, during anesthesia with isoflurane, the abdominal cavity was opened, and cardiac blood was drawn with a syringe into a Microvette/Vacuette of appropriate dimensions with anticoagulant and mixed by inversion 5 times. Blood was placed at 4° C. until centrifuged at 3000 g for 10 minutes. The plasma supernatants were transferred to new tubes and immediately frozen on dry ice. The samples were stored at −70° C.
# Alanine transaminase (ALT), Aspartate transaminase (AST), Triglycerides (TG) and Total Cholesterol (TC): Blood samples were collected in heparinized tubes and plasma was separated and stored at −70° C. until analysis. Samples were measured using commercial kits (Roche Diagnostics), on the cobas c 501 autoanalyzer.
# as §2
# [9] = system: DIO mice; experiment: Fasting blood glucose and plasma insulin in DIO mice; type: in vivo
# Description: For in vivo blood samples, tail-vein, tongue or cheek blood was collected in a Microvette tube of appropriate dimensions with anticoagulant and mixed by inversion 5 times. Blood was placed at 4° C. until centrifuged at 3000 g for 10 minutes. The plasma supernatants were transferred to new tubes and immediately frozen on dry ice. The samples were stored at −70° C.
# Insulin: Blood samples were collected in heparinized tubes and plasma was separated and stored at −70° C. until analysis. Insulin was measured using the commercial MSD platform (Meso Scale Diagnostics).
# as §2
# [10] = system: DIO mice; experiment: Oral glucose tolerance test in DIO mice; type: in vivo
# Description: Animals were housed in a clean cage and fasted for 4 hours prior to oral or intraperitoneal glucose administration. At timepoint 0, mice receive an oral or intraperitoneal dose of 10 ml/kg of 200 mg/ml standard glucose solution (Fresenius Kabi, DK). At timepoint 0, mice received an oral or intraperitoneal dose of 4 ml/kg of standard 500 mg/ml glucose solution (Fresenius Kabi, DK). Blood samples (10 μl) were collected at various timepoints defined in the study protocol into heparinized glass capillary tubes and immediately suspended in glucose/lactate system solution buffer (EKF-diagnostics, Germany). Blood glucose (BG) was measured using a BIOSEN c-Line glucose meter (EKF-diagnostics, Germany) according to the manufacturer's instructions. After the last blood sample and/or drug dose, the animals were returned to the normal feeding schedule.
# as §2
# [11] = system: DIO mice; experiment: Organ weights at termination in DIO mice; type: in vivo; details: mid and high (5 and 15 nmol/kg)
# Description: as §3, §2
# [12] = system: DIO mice; experiment: Weight loss in DIO mice with OPK-88604 and OPK-88006, 30 nmoles/kg; type: in vivo; details: vs placebo, listed as OPK-88604
# Description: as §1
# DIO mice with weights of around 55 grams were divided into three groups and treated with placebo, 30 nmoles/kg of OPK-88604, or 30 nmoles/kg of OPK-88006 for 4 weeks. The animals were weighed daily for the period of treatment.
# [13] = Solubility data of the binder complex; type: physicochemical
# From the text: The structure and characteristics of the binder complex are detailed in Table 4 below.
# [14] = 15 nmol/kg daily, 28 days, OPK-88604 vs semaglutide
# [15] = 28 day treatment, vs semaglutide
# [16] = mid and high (5 and 15 nmol/kg)
# [17] = 28 day treatment, vs semaglutide, listed as OPK-88604
# Chain of GCGR (P47871 26-477): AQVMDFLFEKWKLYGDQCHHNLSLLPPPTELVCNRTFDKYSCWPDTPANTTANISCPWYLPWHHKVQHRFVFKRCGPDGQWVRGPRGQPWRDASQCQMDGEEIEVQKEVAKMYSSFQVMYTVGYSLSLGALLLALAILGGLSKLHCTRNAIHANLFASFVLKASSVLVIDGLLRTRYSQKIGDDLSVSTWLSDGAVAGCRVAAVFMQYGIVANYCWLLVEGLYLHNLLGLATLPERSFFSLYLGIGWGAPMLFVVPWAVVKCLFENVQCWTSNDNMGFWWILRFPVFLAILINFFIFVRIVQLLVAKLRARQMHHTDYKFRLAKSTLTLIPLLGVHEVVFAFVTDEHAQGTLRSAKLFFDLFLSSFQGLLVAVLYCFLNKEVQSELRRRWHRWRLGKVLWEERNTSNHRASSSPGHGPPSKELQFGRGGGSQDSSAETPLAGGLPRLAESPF
# Chain of GLP1 (P43220 24-463): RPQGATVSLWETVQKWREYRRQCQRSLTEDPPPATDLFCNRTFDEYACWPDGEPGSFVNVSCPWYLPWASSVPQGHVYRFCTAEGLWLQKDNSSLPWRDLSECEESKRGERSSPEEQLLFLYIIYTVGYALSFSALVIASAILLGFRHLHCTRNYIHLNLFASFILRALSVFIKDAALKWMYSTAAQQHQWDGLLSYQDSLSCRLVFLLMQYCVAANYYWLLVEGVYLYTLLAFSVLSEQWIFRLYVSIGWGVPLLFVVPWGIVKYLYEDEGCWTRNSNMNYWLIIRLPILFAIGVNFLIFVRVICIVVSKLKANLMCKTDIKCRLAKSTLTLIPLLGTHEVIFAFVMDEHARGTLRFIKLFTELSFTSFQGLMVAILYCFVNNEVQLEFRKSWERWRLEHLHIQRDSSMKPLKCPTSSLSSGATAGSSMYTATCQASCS
# T1 sequence (P43220 24-463): as above
compound,measurement,setting,value
CC[C@H](C)[C@H](NC(=O)[C@H](CC(N)=O)NC(=O)[C@H](CC(N)=O)NC(=O)[C@H](CCCNC(=N)N)NC(=O)[C@H](CC(N)=O)NC(=O)[C@H](CCCNC(=N)N)NC(=O)CNC(=O)C(C)(C)NC(=O)[C@H](CC(N)=O)NC(=O)[C@H](CC(C)C)NC(=O)[C@H](CC(C)C)NC(=O)[C@H](Cc1c[nH]c2ccccc12)NC(=O)[C@H](CCC(N)=O)NC(=O)[C@@H](NC(=O)[C@H](Cc1ccccc1)NC(=O)[C@H](CCC(=O)O)NC(=O)[C@H](CCC(N)=O)NC(=O)[C@H](C)NC(=O)[C@H](CCCCN)NC(=O)[C@H](CCCCN)NC(=O)[C@H](CO)NC(=O)[C@H](CC(=O)O)NC(=O)[C@H](CC(C)C)NC(=O)[C@H](Cc1ccc(O)cc1)NC(=O)[C@H](CCCCN)NC(=O)[C@H](CO)NC(=O)[C@H](Cc1ccc(O)cc1)NC(=O)[C@H](CC(=O)O)NC(=O)[C@H](CO)NC(=O)[C@@H](NC(=O)[C@H](Cc1ccccc1)NC(=O)[C@@H](NC(=O)CNC(=O)[C@H](CCC(N)=O)NC(=O)C(C)(C)NC(=O)[C@@H](N)Cc1c[nH]cn1)[C@@H](C)O)[C@@H](C)O)C(C)C)C(=O)N[C@@H](C)C(=O)N[C@@H](CSCC(=O)NCCCC[C@H](NC(=O)COCCOCCNC(=O)COCCOCCNC(=O)CC[C@H](NC(=O)CCCCCCCCCCCCCCCCCCC(=O)O)C(=O)O)C(=O)NCC(=O)O)C(N)=O [Variant 1] (H-H[Aib]QGTFTSDYSKYLDSKKAQEFVQWLLN[Aib]GRNRNNIAC(X1)-NH2),pEC50,[1],10.05
same,EC50,[2],0.0159 nM
same,EC50,[3],0.164 nM
same,GCGR/GLP-1R,[3]; ratio of EC50 activity,10.3
same,"food consumption / cumulative food intake (FIG. 17B, 18B)",[4]; [14],Reduced food consumption significantly less than treatment with semaglutide
same,"weight loss from baseline (FIG. 17A, 18A)","[4]; 15 nmol/kg daily, 28 days, OPK-88604 vs semaglutide vs placebo",similar
same,"relative body weight (day 28), P compared to Vehicle (FIG. 16B)","[4]; Mid, 5 nmol/kg QD SC",< 0.05
same,absolute and relative body weight and fat mass compared to the vehicle group,"[4]; high (15 nmol/kg), four weeks",reduced both absolute and relative body weight and fat mass
same,relative body weight compared to the vehicle group,"[4]; mid (5 nmol/kg), four weeks",reduced relative body weight
same,"relative fat tissue mass / relative lean tissue mass at week 4, P compared to Vehicle (FIG. 22A, 22B)",[5]; 15 nmol/kg QD SC,< 0.01
same,"relative lean body mass and fat mass change from baseline on day 28 (FIG. 24A, 24B)",[5]; [14],statistically similar
same,"total liver cholesterol, P compared to Vehicle (FIG. 25B)",[6]; 15 nmol/kg QD SC,< 0.05
same,"total liver cholesterol, triglycerides and glycogen, change from baseline on day 28 (FIG. 28A-C)",[6]; [15],"significantly more effective in reducing total liver cholesterol, triglycerides, and glycogen"
same,total liver TC,[6]; high (15 nmol/kg),reduced
same,liver TG (total and relative),[6]; [16],reduced
same,"relative liver lipid / total liver lipid, P compared to Vehicle (FIG. 31A, 31B)",[7]; 15 nmol/kg QD SC,< 0.001
same,"lipid droplets in liver, H&E staining (FIG. 30A-C)","[7]; 28 day treatment, vs placebo and semaglutide, listed as OPK-88604",reduced the amount of lipid droplets in liver compared to placebo and animals treated with semaglutide; also recorded: Significantly reduced the amount of lipid droplets in liver compared to Semaglutide
same,liver lipid content (total and relative),[7]; high (15 nmol/kg),reduced
same,"total plasma cholesterol and triglycerides on day 28 (FIG. 33A, 33B)",[8]; [15],significantly more effective in reducing total plasma cholesterol and triglycerides compared to semaglutide
same,plasma TC levels at termination,[8]; [16],reduced
same,fasting glucose change from baseline on day 28 (FIG. 35A),[9]; [17],significant decrease in fasting glucose levels compared to semaglutide treatment; also recorded: significantly more effective in lowering fasting glucose levels
same,fasting insulin change from baseline on day 28 (FIG. 35B),[9]; [17],marked increase in insulin levels from baseline compared to semaglutide treatment; also recorded: increased insulin levels compared to Semaglutide
same,blood glucose levels at study week 4,"[9]; all doses (2, 5, 15 nmol/kg)",reduced blood glucose levels
same,plasma insulin levels during the glucose tolerance test and preterminal,[9]; high (15 nmol/kg),decreased
same,blood glucose in response to an oral glucose bolus compared to vehicle controls,"[10]; all OPK-88604 groups (2, 5, 15 nmol/kg)",reduced blood glucose compared to vehicle controls
same,glucose AUC in OGTT (FIG. 38B),"[10]; treated for 3 weeks, vs semaglutide",statistically lower
same,glucose levels in Oral Glucose Tolerance test (FIG. 38A),"[10]; treated for 3 weeks, vs semaglutide, listed as OPK-88604",more effective in reducing glucose levels in an Oral Glucose Tolerance test compared to Semaglutide
same,heart weight,[11],reduced
same,"weight loss over 4 weeks (FIG. 41A, 41B)",[12],significant weight loss over 4 weeks compared to placebo
Eicosanedioic-[…]Glu-(AEEA)2-Lys(Ac-Br)-Gly-OH [Binder Complex],Solubility data,[13],Water-based buffer at pHs 6.5-7.5
